The text below walks through data of publication PMC12650729 (Biology, 2025).

pEC50: −log10 of the molar value. Read-outs that look alike come from different tables or passages of the source. Where only a bound is given, the exact number is not on record here.

Data set [1] concerns CV-A9. The experiment in a line: Drug combination, Zero Interaction Potency (ZIP) model, SynergyFinder, CV-A9-infected RD cells. The following applies: CV-A9 MOI 0.001, RD cells; -10 to 10 additive.
The next data set concerns IRES. The following applies: 293T cells, Fluc/Rluc.
Another data set deals with CV-B3 3C^pro (Coxsackievirus B3, UniProt P03313). Briefly: FRET-based protease assay, CV-B3 3C protease. In kind it is biochemical. The following applies: 1 mM.
Chain of CV-B3 3C^pro (P03313 1541-1723): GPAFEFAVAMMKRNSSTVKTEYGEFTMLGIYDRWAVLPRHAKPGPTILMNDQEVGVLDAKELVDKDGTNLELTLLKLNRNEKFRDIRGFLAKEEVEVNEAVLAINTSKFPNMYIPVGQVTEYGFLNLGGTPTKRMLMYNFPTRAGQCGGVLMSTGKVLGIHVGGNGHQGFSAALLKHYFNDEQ
The subject of data set [2] is CV-A9. The experiment in a line: Primary screening for antiviral compounds by cytopathic effects (CPEs). The following applies: 10 μM, RD cells, 36 h.p.i.
Another data set concerns the target CV-A9 3D^pol (Coxsackievirus A9, UniProt P21404). Briefly: In vitro RNA primer extension assay using 3D^pol.
Data set [3] has as its system CV-A9. The experiment in a line: Time-of-addition assay, CV-A9. In kind it is cell-based. The following applies: 25 μM, RD cells, MOI 0.001.
A further data set deals with CV-A9 2A^pro. The experiment in a line: FRET-based protease assay, CV-A9 2A protease. It counts as biochemical. The following applies: pre-incubated 30 min.
Data set [4] relates to EV-A71. The experiment in a line: Antiviral evaluation in vivo, EV-A71-infected BALB/c young mice (tissue viral load, H&E). The following applies: same dosing.
Data set [5] can be described thus: in vitro. The following applies: African green monkey.
A further data set has as its system IL-6. The experiment in a line: Cytokine expression analysis, IL-6 mRNA in CV-A9-infected RD cells. The following applies: Homo sapiens, 24 h, read-out: inhibition of CV-A9-induced IL-6 upregulation.
The test system of data set [6] is CV-A9. The experiment in a line: EC50 evaluation against CV-A9 in Huh-7 cells. In kind it is cell-based.
The next data set concerns TNF-α. Briefly: Cytokine expression analysis, TNF-α mRNA in CV-A9-infected RD cells.
Another data set relates to MCP-1. Briefly: Cytokine expression analysis, MCP-1 mRNA in CV-A9-infected RD cells. It counts as cell-based, Human. The following applies: MOI 0.001, 24 h. On the procedure:
(§1) Figure S13. Effect of bioactive compounds on the expression of MCP-1 and COX-
(§2) 2 induced by CV-A9 infection.
(§3) MCP-1 (a) and COX-2 (b) mRNA levels in RD cells were quantified by RT-qPCR at
(§4) 24 h.p.i following CV-A9 infection (MOI=0.001) and treatment with 50 μM velutin,
(§5) isorhamnetin, or (−)-epicatechin gallate. Representative curves of at least two

For a further data set, the system named is CV-B3. Briefly: EC50 evaluation against CV-B3 in Vero E6 cells (viral nucleic acid load). In kind it is cell-based.
Data set [7] is described as follows: CC50 evaluation, CellTiter-Blue cell viability assay, RD cells. It counts as cell-based. The following applies: human, RD cells (human rhabdomyosarcoma), parallel to CV-A9 assay.
A further data set concerns COX-2. Briefly: Cytokine expression analysis, COX-2 mRNA in CV-A9-infected RD cells. The following applies: MOI 0.001, 24 h. It counts as cell-based, Human. On the procedure: as §1, §2, §3, §4, §5
In data set [8] the test system is EV-A71. The experiment in a line: microbe, parasite or virus in culture. In kind it is cell-based. The following applies: Enterovirus A, EVA71, RD, read-out: EC50 against EV-A71.
The subject of data set [9] is CV-A9. Briefly: EC50 evaluation against CV-A9 in RD cells (viral nucleic acid load). In kind it is cell-based. The following applies: read-out: EC50 against CV-A9.
The next data set deals with Echo-11. Briefly: EC50 evaluation against Echo-11 in RD cells. In kind it is cell-based.
The subject of another data set is PV1. The experiment in a line: microbe, parasite or virus in culture. In kind it is cell-based, poliovirus 1. The following applies: Enterovirus C, RD, read-out: EC50 against PV1.
A short description of data set [10]: in vitro. The following applies: human.
The test system of data set [11] is CV-A9. Briefly: organism not typed. In kind it is cell-based. The following applies: for inhibition at 25 µM: RD.
The subject of data set [12] is CV-A9. Briefly: Post-entry inhibitory effect (viral RNA kinetics), CV-A9 in RD cells. In kind it is cell-based. The following applies: 25 μM added at 2 h post-infection, cells and supernatants.
[13] abbreviates: Huh-7, read-out: EC50 against CV-A9.
The mark [14] stands for this setting: read-out: inhibition of CV-A9 attachment.
Where [15] appears, read: Vero C1008, read-out: EC50 against CV-B3.

Chain of CV-A9 3D^pol (P21404 1740-2201): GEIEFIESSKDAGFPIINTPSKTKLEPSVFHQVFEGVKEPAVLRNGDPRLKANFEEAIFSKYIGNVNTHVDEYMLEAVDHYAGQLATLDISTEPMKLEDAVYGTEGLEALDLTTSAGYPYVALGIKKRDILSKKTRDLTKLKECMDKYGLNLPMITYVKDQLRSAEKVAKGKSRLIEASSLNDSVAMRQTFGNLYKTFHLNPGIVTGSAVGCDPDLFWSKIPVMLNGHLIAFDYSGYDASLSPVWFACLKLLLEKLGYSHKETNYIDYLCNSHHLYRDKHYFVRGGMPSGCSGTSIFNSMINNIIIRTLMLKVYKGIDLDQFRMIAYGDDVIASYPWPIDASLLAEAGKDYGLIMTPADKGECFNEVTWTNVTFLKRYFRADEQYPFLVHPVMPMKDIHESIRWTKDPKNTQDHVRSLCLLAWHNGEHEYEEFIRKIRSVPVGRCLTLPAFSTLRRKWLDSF

Take `O=C(O[C@@H]1Cc2c(O)cc(O)cc2O[C@@H]1c1ccc(O)c(O)c1)c1cc(O)c(O)c(O)c1` [(−)-epicatechin gallate]: the CC50 in the data set with Huh-7 cells and with Vero E6 cells was above 100 µM in each case. In addition, in the data set with CV-A9 [1], the “ZIP score of the combination with velutin” value (from here on “ZIP score of the combination”) is 1.443. Besides, in the data set with IRES, the “inhibitory activity against IRES elements” value is “no inhibitory activity”. The “inhibition of CV-B3 3C^pro protease activity” value against CV-B3 3C^pro is recorded as “about 50%”. Moreover, in the data set on CV-A9 [2], the “primary screening result by CV-A9-induced CPEs” value (shortened to “primary screening result”) is reported as “identified as CV-A9 inhibitors”. Further, the “inhibitory activity against 3D^pol” value against CV-A9 3D^pol is listed as “no inhibitory activity”. Moreover, the “phase-specific activity, time-of-addition, CV-A9” value (shortened to “phase-specific activity”) with CV-A9 [3] is “pan-stage suppression spanning both entry and post-entry phases”. Besides, the “inhibitory activity against 2A^pro” value in the data set on CV-A9 2A^pro was “no inhibitory activity”.
Regarding `Nc1ccc(C(=O)Nc2cccc(-c3nc(N4CCOCC4)c4oc5ncccc5c4n3)c2)cn1` [YM-201636, reference compound], in the data set on EV-A71 [4], the “intestinal histopathology (H&E)” value is reported as “partial shedding of intestinal epithelial cells”.
For the compound `COc1cc(-c2oc3cc(O)cc(O)c3c(=O)c2O)ccc1O` [isorhamnetin], the CC50 (in “in vitro [5]”; in data set [7]; in the data set “in vitro [10]”) was above 100 µM each time. The inhibition at 50 µM in the data set with IL-6 is around 60%. Also, in the data set on CV-A9 [1], the “ZIP score of the combination” value was 3.126. Further, the pEC50 in the data set with CV-A9 [6] (Huh-7 cells, read-out: EC50 against CV-A9) was 5.04; in the data set with CV-B3 (Vero C1008, MOI 0.001, read-out: EC50 against CV-B3), 5.79; in the data set with EV-A71 [8], 4.84; in the data set on CV-A9 [9] (RD cells, MOI 0.001) it was 5.65; in the data set on Echo-11 (MOI 0.005, read-out: EC50 against Echo-11), 4.69; in the data set on PV1, 4.86. For the same compound, the “inhibition of CV-A9-induced TNF-α upregulation” value in the data set on TNF-α (50 μM, RD cells, MOI 0.001, 24 h) is given as “without significant effects”. Moreover, the “inhibition of CV-A9-induced MCP-1 upregulation” value in the data set with MCP-1 (50 μM) was “without significant effects”. The “inhibitory activity against IRES elements” value in the data set on IRES is on record as “no inhibitory activity”. This compound also registered an inhibition at 1000 µM at CV-B3 3C^pro of around 50%. In the data set with COX-2 (50 μM), the “inhibition of CV-A9-induced COX-2 upregulation” value is reported as “without significant effects”. In addition, the “primary screening result” value in the data set on CV-A9 [2] is “identified as CV-A9 inhibitors”. Moreover, on CV-A9 3D^pol, the “inhibitory activity against 3D^pol” value is given as “no inhibitory activity”. Besides, in the data set with CV-A9 [3], the “phase-specific activity” value was “pan-stage suppression spanning both entry and post-entry phases”. Moreover, the “inhibitory activity against 2A^pro” value with CV-A9 2A^pro is recorded as “no inhibitory activity”.
Turning to `Oc1cccc(O)c1O` [pyrogallol], the CC50 (in “in vitro [5]”; in [7]; in “in vitro [10]”) was above 100 µM in each case. The “ZIP score of the combination” value with CV-A9 [1] came out at 1.684. Besides, the pEC50 in the data set on CV-A9 [6] (setting [13]) was 5.05; in the data set with CV-B3 (setting [15]) it was 5.75; in the data set on EV-A71 [8] it was below 4.00; with CV-A9 [9] (RD), 4.98; in the data set with Echo-11 (read-out: EC50 against Echo-11) it was below 4.00; in the data set on PV1 it was below 4.00. In addition, in the data set on CV-A9 [11] (25 µM), the “inhibition of CV-A9 internalization” value was “without affecting cellular internalization”. Besides, the inhibition at 25 µM in the data set with CV-A9 [11] (setting [14]) is 32.4%. Besides, the “primary screening result” value with CV-A9 [2] is recorded as “identified as CV-A9 inhibitors”. Further, the “phase-specific activity” value with CV-A9 [3] is “exclusively targeted viral attachment”.
As for `COc1cc(O)c2c(=O)cc(-c3ccc(O)c(OC)c3)oc2c1` [velutin], the CC50 (in “in vitro [5]”; in data set [7]; in “in vitro [10]”) was above 100 µM throughout. For the same compound, the inhibition at 50 µM in the data set with IL-6 is 70 to 80%; in the data set on TNF-α (Homo sapiens, RD, 24 h, read-out: inhibition of CV-A9-induced TNF-α upregulation), 70 to 80%; in the data set on MCP-1 (Homo sapiens, read-out: inhibition of CV-A9-induced MCP-1 upregulation), 20%; with COX-2 (Homo sapiens, read-out: inhibition of CV-A9-induced COX-2 upregulation) it was 70 to 80%. The “intestinal histopathology (H&E)” value in the data set on EV-A71 [4] is “no hydropic degeneration of the epithelial cells”. Further, the pEC50 in the data set with CV-A9 [6] (setting [13]) is 5.43; in the data set with CV-B3 (setting [15]) it was 5.65; with EV-A71 [8] it was 5.66; with CV-A9 [9] (RD), 6.12; with Echo-11 (read-out: EC50 against Echo-11), 6.16; in the data set with PV1 it was 6.02. The inhibition at 25 µM in the data set with CV-A9 [11] (setting [14]) came to 40.5%; in the data set with CV-A9 [11] (read-out: inhibition of CV-A9 internalization), 38.2%. The “inhibitory activity against IRES elements” value in the data set with IRES is given as “no inhibitory activity”. Also, the “post-entry viral load kinetics, CV-A9” value in the data set on CV-A9 [12] was “significantly suppressed intra- and extracellular viral proliferation”. Further, the “primary screening result” value in the data set with CV-A9 [2] was “identified as CV-A9 inhibitors”. On CV-A9 3D^pol, the “inhibitory activity against 3D^pol” value was “no inhibitory activity”. Besides, in the data set on CV-A9 [3], the “phase-specific activity” value was “pan-stage suppression spanning both entry and post-entry phases”. Moreover, the “inhibitory activity against 2A^pro” value with CV-A9 2A^pro is given as “no inhibitory activity”.
